Columns and labels:
[1] = system: SNU16 cells; test: SNU16 Cancer Cell Line Proliferation Assay (CellTiter-Glo); type: cell-based; conditions: Homo sapiens, SNU-16, 72 h
Outline: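 Luminescent ATP read-out after 72 h at 37 °C gave IC50 values; compounds tested as 9 three-fold serial dilutions on 5000 SNU16 cells per well, with DMSO as control.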

[2] = target: T1, FGFR3 (Homo sapiens, UniProt P22607); test: FGFR3 Biochemical Caliper Assay (KinEASE-TK kit); conditions: ratio FGFR3/FGFR2 of the biochemical assay
T1 construct: purchased Carna 08-135
T1 sequence (P22607 23-806): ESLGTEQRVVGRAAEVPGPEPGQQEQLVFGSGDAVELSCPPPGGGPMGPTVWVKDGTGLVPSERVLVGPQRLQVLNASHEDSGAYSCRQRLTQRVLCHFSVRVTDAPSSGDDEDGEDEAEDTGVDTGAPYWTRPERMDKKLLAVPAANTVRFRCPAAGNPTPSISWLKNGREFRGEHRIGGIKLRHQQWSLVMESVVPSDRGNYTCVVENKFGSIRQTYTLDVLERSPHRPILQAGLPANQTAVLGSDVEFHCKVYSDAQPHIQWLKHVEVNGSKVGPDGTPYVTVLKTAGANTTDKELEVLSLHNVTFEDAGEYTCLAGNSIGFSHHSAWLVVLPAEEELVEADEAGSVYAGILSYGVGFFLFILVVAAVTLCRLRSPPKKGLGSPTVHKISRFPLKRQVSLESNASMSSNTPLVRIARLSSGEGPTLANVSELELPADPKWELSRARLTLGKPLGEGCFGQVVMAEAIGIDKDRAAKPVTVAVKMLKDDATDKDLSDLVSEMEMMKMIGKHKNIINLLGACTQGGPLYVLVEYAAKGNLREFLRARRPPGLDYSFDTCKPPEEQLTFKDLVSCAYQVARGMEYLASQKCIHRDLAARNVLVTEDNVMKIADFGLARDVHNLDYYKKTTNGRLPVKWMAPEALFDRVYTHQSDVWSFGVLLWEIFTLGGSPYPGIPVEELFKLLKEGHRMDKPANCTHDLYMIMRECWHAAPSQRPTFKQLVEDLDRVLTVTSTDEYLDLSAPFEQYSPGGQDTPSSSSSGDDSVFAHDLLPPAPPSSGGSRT
Outline: (§1)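 KinEASE-TK HTRF readout: enzyme at 0.2 nM (FGFR1, FGFR3) preincubated 10 min at RT with 10-point 3-fold compound dilutions before TK-substrate/ATP start.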

[3] = target: T2, FGFR1 (Homo sapiens, UniProt P11362); test: FGFR1 Biochemical Caliper Assay (KinEASE-TK kit); conditions: ratio FGFR1/FGFR2 of the biochemical assay
T2 construct: purchased Carna 08-133
T2 sequence (P11362 22-822): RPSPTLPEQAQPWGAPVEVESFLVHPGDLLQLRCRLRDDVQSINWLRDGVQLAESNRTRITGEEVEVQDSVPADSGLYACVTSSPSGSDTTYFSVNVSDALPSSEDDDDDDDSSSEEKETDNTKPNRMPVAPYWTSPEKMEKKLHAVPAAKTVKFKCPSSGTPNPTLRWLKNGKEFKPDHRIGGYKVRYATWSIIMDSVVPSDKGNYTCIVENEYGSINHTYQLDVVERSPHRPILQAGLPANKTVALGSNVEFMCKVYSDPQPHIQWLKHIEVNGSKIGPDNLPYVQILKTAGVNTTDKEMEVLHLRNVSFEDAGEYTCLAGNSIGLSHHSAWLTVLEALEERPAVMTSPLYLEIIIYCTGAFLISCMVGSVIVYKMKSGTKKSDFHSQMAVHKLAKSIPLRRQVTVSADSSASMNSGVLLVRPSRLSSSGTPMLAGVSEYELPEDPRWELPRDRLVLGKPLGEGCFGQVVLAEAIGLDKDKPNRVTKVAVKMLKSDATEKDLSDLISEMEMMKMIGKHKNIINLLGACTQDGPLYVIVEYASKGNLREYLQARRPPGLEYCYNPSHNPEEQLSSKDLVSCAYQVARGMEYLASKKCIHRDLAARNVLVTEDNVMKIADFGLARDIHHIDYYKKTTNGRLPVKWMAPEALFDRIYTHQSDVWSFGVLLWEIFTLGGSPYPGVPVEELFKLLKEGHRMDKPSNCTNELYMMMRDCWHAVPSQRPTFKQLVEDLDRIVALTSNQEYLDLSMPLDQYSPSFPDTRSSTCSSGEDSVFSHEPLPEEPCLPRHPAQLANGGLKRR
Outline: as §1

[4] = target: T3, FGFR2 (Homo sapiens, UniProt P21802); test: FGFR2 Biochemical Caliper Assay (KinEASE-TK kit); conditions: 0.07 nM FGFR2; compound incubated with protein 10 min, reaction 45 min at RT; read-out: FGFR2 Cliper IC50
T3 construct: purchased Carna 08-134
T3 sequence (P21802 22-821): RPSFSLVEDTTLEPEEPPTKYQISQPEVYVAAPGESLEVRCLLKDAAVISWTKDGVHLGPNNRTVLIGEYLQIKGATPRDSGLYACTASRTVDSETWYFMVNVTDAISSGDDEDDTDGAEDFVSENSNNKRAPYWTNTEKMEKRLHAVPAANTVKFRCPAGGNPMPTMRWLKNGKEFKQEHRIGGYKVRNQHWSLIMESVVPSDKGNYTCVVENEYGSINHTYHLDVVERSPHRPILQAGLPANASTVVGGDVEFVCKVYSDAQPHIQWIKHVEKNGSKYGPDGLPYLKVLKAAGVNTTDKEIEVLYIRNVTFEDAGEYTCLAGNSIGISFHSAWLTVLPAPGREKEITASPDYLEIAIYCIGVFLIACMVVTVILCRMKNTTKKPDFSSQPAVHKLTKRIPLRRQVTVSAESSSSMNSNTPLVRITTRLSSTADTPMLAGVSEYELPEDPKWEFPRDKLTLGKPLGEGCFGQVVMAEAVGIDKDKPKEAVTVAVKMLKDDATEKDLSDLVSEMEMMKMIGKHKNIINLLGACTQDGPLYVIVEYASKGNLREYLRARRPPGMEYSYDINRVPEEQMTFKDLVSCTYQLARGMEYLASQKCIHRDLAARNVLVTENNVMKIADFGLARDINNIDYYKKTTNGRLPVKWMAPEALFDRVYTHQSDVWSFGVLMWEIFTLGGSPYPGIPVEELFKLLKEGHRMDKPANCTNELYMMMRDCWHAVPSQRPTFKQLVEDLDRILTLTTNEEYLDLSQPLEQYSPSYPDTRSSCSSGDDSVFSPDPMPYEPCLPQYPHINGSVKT

Row | IC50 [1] [µM] | IC50 [4] [µM] | SMILES | Selectivity FGFR3/FGFR2 [2] | Selectivity FGFR1/FGFR2 [3]
1 | ≤ 0.01 | < 0.005 | C=CC(=O)Nc1ccc(-c2nn3ncnc(N)c3c2-c2ccc(Oc3cccc(C)n3)c(F)c2)cc1 [Compound 366] | A+ (Selectivity of FGFR3/FGFR2 greater or equal to 150) | A+ (Selectivity of FGFR1/FGFR2 greater or equal to 500)
2 | ≤ 0.01 | < 0.005 | [2H]C([2H])([2H])Oc1cc(-c2c(-c3ccc(NC(=O)C(=C)F)cc3)nn3ncnc(N)c23)ccc1C(=O)NCC1(F)CC1 [Compound 372, 4-(4-amino-6-(4-(2-fluoroacrylamido)phe-nyl)pyrazolo[5,1-f][1,2,4]triazin-5-yl)-N-((1-fluorocyclo-propyl)methyl)-2-(methoxy-d3)benzamide] | A+ (Selectivity of FGFR3/FGFR2 greater or equal to 150) | A+ (Selectivity of FGFR1/FGFR2 greater or equal to 500)
3 | ≤ 0.01 | > 0.01 | CC#CC(=O)Nc1ccc(-c2nn3ncnc(N)c3c2-c2ccc(C(=O)NC3(C(F)(F)F)CC3)c(OC)c2)cc1 [Compound 395] | B (Selectivity of FGFR3/FGFR2 less than 100 but greater than or equal to 25) | A+ (Selectivity of FGFR1/FGFR2 greater or equal to 500)
4 | ≤ 0.01 | < 0.005 | C=CC(=O)Nc1ccc(-c2nn3ncnc(N)c3c2-c2ccc(Oc3nccc(CC)n3)c(F)c2)cc1 [Compound 400, N-(4-(4-amino-5-(4-((4-ethylpyrimidin-2-yl)oxy)-3-fluorophenyl)pyrazolo[5,1-f][1,2,4]triazin-6-yl)phenyl)acrylamide] | A+ (Selectivity of FGFR3/FGFR2 greater or equal to 150) | A+ (Selectivity of FGFR1/FGFR2 greater or equal to 500)
5 | ≤ 0.01 | > 0.01 | C=CC(=O)Nc1ccc(-c2nn3ncnc(N)c3c2-c2ccc(Oc3ccn(C)n3)c(F)c2)cc1 [Compound 402, N-(4-(4-amino-5-(3-fluoro-4-((1-methyl-1H-pyrazol-3-yl)oxy)phenyl)pyrazolo [5,1-f][1,2,4]triazin-6-yl)phenyl)acrylamide] | A+ (Selectivity of FGFR3/FGFR2 greater or equal to 150) | A+ (Selectivity of FGFR1/FGFR2 greater or equal to 500)
6 | > 0.05 | < 0.005 | C#CC(=O)Nc1ccc(-c2nn3ncnc(N)c3c2-c2ccc(Oc3cccc(C)n3)c(F)c2)cc1 [Compound 410] | A (Selectivity of FGFR3/FGFR2 less than 150 but greater than or equal to 100) | A (Selectivity of FGFR1/FGFR2 less than 500 but greater than or equal to 300)
7 | ≤ 0.01 | < 0.005 | C=C(F)C(=O)Nc1ccc(-c2nn3ncnc(N)c3c2-c2ccc(C(=O)NC3(C(F)(F)F)CC3)c(OC)c2)c(OC)c1 [Compound 415] | B (Selectivity of FGFR3/FGFR2 less than 100 but greater than or equal to 25) | B (Selectivity of FGFR1/FGFR2 less than 300 but greater than or equal to 200)
8 | ≤ 0.01 | < 0.005 | C=C(F)C(=O)Nc1ccc(-c2nn3ncnc(N)c3c2-c2ccc(C(=O)NC34CC(F)(C3)C4)c(OC)c2)c(OC)c1 [Compound 416, 4-(4-amino-6-(4-(2-fluoroacrylamido)-2-methoxyphenyl)pyrazolo[5,1-f][1,2,4]triazin-5-yl)-N-(3-fluorobicyclo[1.1.1]pentan-1-yl)-2-methoxybenzamide] | B (Selectivity of FGFR3/FGFR2 less than 100 but greater than or equal to 25) | B (Selectivity of FGFR1/FGFR2 less than 300 but greater than or equal to 200)
9 | ≤ 0.01 | < 0.005 | C=C(F)C(=O)Nc1ccc(-c2nn3ncnc(N)c3c2-c2ccc(C(=O)NC34CC(C3)C4)c(OC)c2)c(OC)c1 [Compound 426, 4-(4-amino-6-(4-(2-fluoroacrylamido)-2-methoxyphenyl)pyrazolo[5,1-f][1,2,4]triazin-5-yl)-N-(bicyclo[1.1.1]pentan-1-yl)-2-methoxybenzamide] | A (Selectivity of FGFR3/FGFR2 less than 150 but greater than or equal to 100) | A+ (Selectivity of FGFR1/FGFR2 greater or equal to 500)
10 | ≤ 0.01 | < 0.005 | C=C(F)C(=O)Nc1ccc(-c2nn3ncnc(N)c3c2-c2ccc(C(=O)NC34CC(F)(C3)C4)c(OC)c2)c(F)c1 [Compound 427, 4-(4-amino-6-(2-fluoro-4-(2-fluoroacryl-amido)phenyl)pyrazolo[5,1-f][1,2,4]triazin-5-yl)-N-(3-fluorobicyclo [1.1.1]pentan-1-yl)-2-methoxybenzamide] | A (Selectivity of FGFR3/FGFR2 less than 150 but greater than or equal to 100) | A+ (Selectivity of FGFR1/FGFR2 greater or equal to 500)
11 | 0.01 to 0.05 | > 0.01 | C=CC(=O)Nc1ccc(-c2nn3ncnc(N)c3c2-c2ccc(Oc3nccc(N)n3)c(F)c2)cc1 [Compound 428] | A+ (Selectivity of FGFR3/FGFR2 greater or equal to 150) | A+ (Selectivity of FGFR1/FGFR2 greater or equal to 500)
12 | ≤ 0.01 | 0.005 to 0.01 | C=C(C)C(=O)Nc1ccc(-c2nn3ncnc(N)c3c2-c2ccc(C(=O)NC3(C(F)(F)F)CC3)c(OC)c2)c(F)c1 [Compound 429] | A+ (Selectivity of FGFR3/FGFR2 greater or equal to 150) | A+ (Selectivity of FGFR1/FGFR2 greater or equal to 500)
13 | ≤ 0.01 | > 0.01 | C=CC(=O)Nc1ccc(-c2nn3ncnc(N)c3c2-c2ccc(C(=O)C3CCCCC3)c(OC)c2)cc1 [Compound 431, N-(4-(4-amino-5-(4-(cyclohexanecarbonyl)-3-methoxyphenyl)pyrazolo[5,1-f][1,2,4]triazin-6-yl)phenyl) acrylamide] | A+ (Selectivity of FGFR3/FGFR2 greater or equal to 150) | A+ (Selectivity of FGFR1/FGFR2 greater or equal to 500)
14 | ≤ 0.01 | < 0.005 | C=C(F)C(=O)Nc1ccc(-c2nn3ncnc(N)c3c2-c2ccc(C(=O)NC3(C(F)(F)F)CC3)c(OC)c2)c(C(F)(F)F)c1 [Compound 432] | B (Selectivity of FGFR3/FGFR2 less than 100 but greater than or equal to 25) | B (Selectivity of FGFR1/FGFR2 less than 300 but greater than or equal to 200)
15 | ≤ 0.01 | 0.005 to 0.01 | C=CC(=O)Nc1ccc(-c2nn3ncnc(N)c3c2-c2ccc(Oc3nccc(NC)n3)c(F)c2)cc1 [Compound 433, N-(4-(4-amino-5-(3-fluoro-4-((4-(methylamino)pyrimidin-2-yl)oxy)phenyl)pyrazolo[5,1-f][1,2,4]triazin-6-yl)phenyl) acrylamide] | A+ (Selectivity of FGFR3/FGFR2 greater or equal to 150) | A+ (Selectivity of FGFR1/FGFR2 greater or equal to 500)
16 | ≤ 0.01 | < 0.005 | C=C(F)C(=O)Nc1ccc(-c2nn3ncnc(N)c3c2-c2ccc(Oc3cccc(C)n3)c(F)c2)c(F)c1 [Compound 438, N-(4-(4-amino-5-(3-fluoro-4-((6-methylpyridin-2-yl)oxy)phenyl)pyrazolo [5,1-f][1,2,4]triazin-6-yl)-3-fluorophenyl)-2-fluoroacrylamide] | A+ (Selectivity of FGFR3/FGFR2 greater or equal to 150) | A+ (Selectivity of FGFR1/FGFR2 greater or equal to 500)

Reference: patent publication US20240383905A1, “FGFR INHIBITORS AND METHODS OF USE THEREOF” (3H PHARMACEUTICALS CO., LTD., priority 2021, published 2024)
